The test system of this assay is T1, L-glutaminase.
T1 construct: native extracellular enzyme purified from culture (ammonium sulfate, DEAE-cellulose, Sephacryl S-300); 52 kDa by SDS-PAGE (54 kDa in discussion); monomer
Kind of assay: steady-state kinetics, ammonia release by Nesslerization. The class given is biochemical, Streptomyces sp. 5 M. Conditions: substrate 2-5 mM; pH and temperature of the kinetic run not printed (optimum pH 7.5, 40 °C). The text has this:
steady-state kinetics, ammonia release by Nesslerization on L-glutaminase | the purified L-glutaminase from Streptomyces sp.

The structures appear in SMILES notation.

Regarding `NC(=O)CC[C@H](N)C(=O)O` [L-glutamine], the Km came to 2620 µM.

Usually Km stands for the concentration of substrate that gives half-maximal velocity.
